Type in all cases: biochemical
The target of one assay is T1, KRAS G12S (Homo sapiens, UniProt P01116, G12S).
T1 construct: made in house; host or cells: E. coli, e.g. BL21 (DE3)
The assay can be described thus: HTRF KRAS-SOS1 interaction assay, KRAS G12S. To be noted: binned ≤2 μM / >2 μM, read-out: Inhibition of KRAS G12S (IC50). The essentials:
(§1)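 Read-out: HTRF ratio 665/620 nm after ≥10 min incubation of compound with GST-KRAS/anti-GST-Eu and His-hSOS1/anti-6His-XL665. Duplicate dose series, 10 μM down to 0.01 μM. Buffer HEPES pH 7.4, NaCl, DTT, BSA, Igepal.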
For orientation: Time-resolved FRET reads energy transfer from a long-lived donor to a nearby acceptor.

The target of the next assay is T2, KRAS G12D (Homo sapiens, UniProt P01116, G12D).
T2 construct: made in house; host or cells: E. coli, e.g. BL21 (DE3)
Kind of assay: HTRF KRAS-SOS1 interaction assay, KRAS G12D. The note with it: binned ≤2 μM / >2 μM, read-out: Inhibition of KRAS G12D (IC50). The procedure, abridged: as §1

The target in a further assay is T3, KRAS WT (Homo sapiens, UniProt P01116).
T3 construct: made in house; host or cells: E. coli, e.g. BL21 (DE3)
Kind of assay: HTRF KRAS-SOS1 interaction assay, wildtype KRAS. To be noted: binned ≤2 μM / >2 μM, read-out: Inhibition of KRAS WT (IC50). The procedure, abridged: as §1

Another assay deals with T4, KRAS G12V (Homo sapiens, UniProt P01116, G12V).
T4 construct: made in house; host or cells: E. coli, e.g. BL21 (DE3)
Kind of assay: HTRF KRAS-SOS1 interaction assay, KRAS G12V. The note with it: binned ≤2 μM / >2 μM, read-out: Inhibition of KRAS G12V (IC50). The procedure, abridged:
as §1

The structures appear in SMILES notation.

T3 sequence (P01116 1-188 isoform P01116-2): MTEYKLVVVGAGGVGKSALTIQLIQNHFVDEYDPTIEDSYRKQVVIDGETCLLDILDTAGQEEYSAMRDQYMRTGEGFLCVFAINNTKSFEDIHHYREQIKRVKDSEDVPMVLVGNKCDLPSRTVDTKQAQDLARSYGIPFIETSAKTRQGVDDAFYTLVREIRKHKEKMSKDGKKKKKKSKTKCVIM
T4 sequence (P01116 1-188 isoform P01116-2 G12V): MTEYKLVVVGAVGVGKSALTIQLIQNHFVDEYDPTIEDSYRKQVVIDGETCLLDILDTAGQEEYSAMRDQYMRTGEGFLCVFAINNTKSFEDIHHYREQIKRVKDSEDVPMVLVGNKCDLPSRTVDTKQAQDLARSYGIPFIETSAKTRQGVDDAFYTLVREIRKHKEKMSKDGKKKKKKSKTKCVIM
T1 sequence (P01116 1-188 isoform P01116-2 G12S): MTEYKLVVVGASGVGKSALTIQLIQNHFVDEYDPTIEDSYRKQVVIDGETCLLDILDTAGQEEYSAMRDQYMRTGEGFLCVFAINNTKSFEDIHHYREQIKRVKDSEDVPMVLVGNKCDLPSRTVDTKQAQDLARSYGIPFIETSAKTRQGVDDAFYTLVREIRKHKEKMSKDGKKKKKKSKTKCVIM
T2 sequence (P01116 1-188 isoform P01116-2 G12D): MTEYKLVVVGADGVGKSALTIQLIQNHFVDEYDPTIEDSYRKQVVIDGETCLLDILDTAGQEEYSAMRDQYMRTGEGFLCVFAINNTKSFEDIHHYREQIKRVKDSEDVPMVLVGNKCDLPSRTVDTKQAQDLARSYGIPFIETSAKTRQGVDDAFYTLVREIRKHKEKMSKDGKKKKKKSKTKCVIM

A word on the IC50: it is the point on the concentration scale where inhibition reaches its midpoint. Take `C=C1CN2CCC[C@@]2(COc2nc3c4c(c(C(F)(F)F)c(-c5ccc(F)c6sc(N)c(C#N)c56)c(F)c4n2)OCCN3[C@H](C)c2cncnc2N)C1` [Compound 680, 2-amino-4-(4-((R)-1-(4-aminopyrimidin-5-yl)ethyl)-10-fluoro-2-(((S)-2-methylenetetrahydro-1H-pyrrolizin-7a(5H)-yl)methoxy)-8-(trifluoromethyl)-5,6-dihydro-4H-[1,4]oxazepino[5,6,7-de]quinazolin-9-yl)-7-fluorobenzo[b]thiophene-3-carbonitrile]: the IC50 at KRAS G12S, on KRAS G12D, on KRAS WT and at KRAS G12V was at most 2000 nM each time.
In the case of `C[C@@H]1COCCN1CC1(COc2nc3c4c(c(C(F)(F)F)c(-c5ccc(F)c6sc(N)c(C#N)c56)c(F)c4n2)OCCN3[C@H](C)c2cccnc2N)CC1` (single isomer, unassigned) [Compound 807], the IC50 on KRAS G12S, on KRAS G12D, at KRAS WT and at KRAS G12V was over 2000 nM each time.
On to `Cc1cnc(N)c([C@@H](C)N2CCOc3c(C(F)(F)F)c(-c4ccc(F)c5sc(N)c(C#N)c45)c(F)c4nc(OC[C@@]56CCCN5C[C@H](F)C6)nc2c34)n1` (single isomer, unassigned) [Compound 718], for which the IC50 at KRAS G12S was at most 2000 nM; on KRAS G12D it was over 2000 nM; on KRAS WT it was at most 2000 nM; at KRAS G12V, at most 2000 nM.
Regarding `C[C@H](c1cccnc1N)N1CCOc2c(Cl)c(-c3ccc(F)c4sc(N)c(C#N)c34)c(F)c3nc(OC[C@@]45CCCN4CC(=NOCC(F)(F)F)C5)nc1c23` (mixture of isomers) [Compound 917, 2-amino-4-(4-((R)-1-(2-aminopyridin-3-yl)ethyl)-8-chloro-10-fluoro-2-(((S)-2-((2,2,2-trifluoroethoxy)imino)tetrahydro-1H-pyrrolizin-7a(5H)-yl)methoxy)-5,6-dihydro-4H-[1,4]oxazepino[5,6,7-de]quinazolin-9-yl)-7-fluorobenzo[b]thiophene-3-carbonitrile], the IC50 on KRAS G12S, at KRAS G12D, on KRAS WT and at KRAS G12V was at most 2000 nM in each case.
Consider `N#Cc1c(N)sc2c(F)ccc(-c3c(Cl)c4c5c(nc(OC[C@@]67CCCN6C[C@H](F)C7)nc5c3F)N(C(/C=C/C(F)(F)F)c3cccnc3N)CCO4)c12` (mixture of isomers) [Compound 828, 2-amino-4-(4-((E)-1-(2-aminopyridin-3-yl)-4,4,4-trifluorobut-2-en-1-yl)-8-chloro-10-fluoro-2-(((2R,7aS)-2-fluorotetrahydro-1H-pyrrolizin-7a(5H)-yl)methoxy)-5,6-dihydro-4H-[1,4]oxazepino[5,6,7-de]quinazolin-9-yl)-7-fluorobenzo[b]thiophene-3-carbonitrile], for which the IC50 on KRAS G12S, at KRAS G12D, at KRAS WT and on KRAS G12V was at most 2000 nM in each case.
With `C[C@H](c1cccnc1N)N1CCOc2c(Cl)c(-c3ncc(F)c4sc(N)c(C#N)c34)c(F)c3nc(OC[C@@]45CCCN4C[C@H](F)C5)nc1c23` (single isomer, unassigned) [Compound 825], the IC50 on KRAS G12S, at KRAS G12D, at KRAS WT and on KRAS G12V was at most 2000 nM each time.
For the compound `N#Cc1c(N)sc2c(F)ccc(-c3c(C(F)(F)F)c4c5c(nc(OC[C@@]67CCCN6[C@H](COc6nccnc6C(F)F)CC7)nc5c3F)N([C@@H](c3cccnc3N)C(F)F)CCO4)c12` (single isomer, unassigned) [Compound 605], the IC50 on KRAS G12S, on KRAS G12D, at KRAS WT and at KRAS G12V was at most 2000 nM each time.
Regarding `C[C@H](c1cc(F)cnc1N)N1CCOc2c(C(F)(F)F)c(-c3ccc(F)c4sc(N)c(C#N)c34)c(F)c3nc(OC[C@@]45CCCN4C[C@@]4(CC4(F)F)C5)nc1c23` [Compound 878, 2-amino-4-(4-((R)-1-(2-amino-5-fluoropyridin-3-yl)ethyl)-2-(((1S,7a′S)-2,2-difluorodihydro-1′H,3′H-spiro[cyclopropane-1,2′-pyrrolizin]-7a′(5′H)-yl)methoxy)-10-fluoro-8-(trifluoromethyl)-5,6-dihydro-4H-[1,4]oxazepino[5,6,7-de]quinazolin-9-yl)-7-fluorobenzo[b]thiophene-3-carbonitrile], the IC50 at KRAS G12S, at KRAS G12D, on KRAS WT and on KRAS G12V was at most 2000 nM in each case.
For the compound `C[C@H](c1cc(Cl)cnc1N)N1CCOc2c(C(F)(F)F)c(-c3ccc(F)c4sc(N)c(C#N)c34)c(F)c3nc(OC[C@@]45CCCN4C[C@@]4(CC4(F)F)C5)nc1c23` [Compound 713, 2-amino-4-(4-((R)-1-(2-amino-5-chloropyridin-3-yl)ethyl)-2-(((1S,7a′S)-2,2-difluorodihydro-1′H,3′H-spiro[cyclopropane-1,2′-pyrrolizin]-7a′(5′H)-yl)methoxy)-10-fluoro-8-(trifluoromethyl)-5,6-dihydro-4H-[1,4]oxazepino[5,6,7-de]quinazolin-9-yl)-7-fluorobenzo[b]thiophene-3-carbonitrile], the IC50 at KRAS G12S, on KRAS G12D, at KRAS WT and on KRAS G12V was at most 2000 nM throughout.
As to `C[C@H](c1cccnc1N)N1C[C@H](C)Oc2c(C(F)(F)F)c(-c3ccc(F)c4sc(N)c(C#N)c34)c(F)c3nc(OC[C@@]45CCCN4C[C@H](F)C5)nc1c23` (single isomer, unassigned) [Compound 697], the IC50 on KRAS G12S, on KRAS G12D, on KRAS WT and on KRAS G12V was at most 2000 nM throughout.
On to `C#Cc1c(F)ccc2cc(O)cc(-c3nc4c5c(nc(OC[C@@H]6CCCN6C)nc5c3F)N(C(C)c3cccnc3N)CCO4)c12` (mixture of isomers) [Compound 722, 4-(10-(1-(2-aminopyridin-3-yl)ethyl)-4-fluoro-2-(((S)-1-methylpyrrolidin-2-yl)methoxy)-9,10-dihydro-8H-7-oxa-1,3,6,10-tetraazacyclohepta[de]naphthalen-5-yl)-5-ethynyl-6-fluoronaphthalen-2-ol], for which the IC50 on KRAS G12S, on KRAS G12D, on KRAS WT and at KRAS G12V was at most 2000 nM in each case.
Turning to `C[C@H](c1cncnc1N)N1CCOc2c(C(F)(F)F)c(-c3cccc4sc(N)c(C#N)c34)c(F)c3nc(OC[C@@]45CCCN4C[C@H](F)C5)nc1c23` (single isomer, unassigned) [Compound 723], the IC50 at KRAS G12S, on KRAS G12D, on KRAS WT and on KRAS G12V was at most 2000 nM throughout.
As for `C[C@H](c1cccnc1N)N1CCOc2c(C(F)(F)F)c(-c3ccc(F)c4sc(N)c(C#N)c34)c(F)c3nc(OCC4(CN5CCC(=C(F)F)CC5)CC4)nc1c23` (single isomer, unassigned) [Compound 884], the IC50 on KRAS G12S, on KRAS G12D, at KRAS WT and at KRAS G12V was over 2000 nM throughout.

Source of the values: US12668600B2 (Kumquat Biosciences Inc., priority 2023, dated 2026).
